Eleven compounds from PubChem BioAssay (NCI) can be followed below.

Some test systems named below: UO-31 renal; NCI/ADR-RES ovarian; K-562 leukemia; HCT-116 colon; LOX IMVI melanoma; HS 578T breast; OVCAR-8 ovarian; CCRF-CEM leukemia; MCF7 breast; A498 renal.
What all share (experiment): NCI anticancer screen, dose series, 48 h

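A five-concentration, 48-hour dose response in 96-well plates underlies each endpoint, interpolated linearly between surrounding concentrations. GI50 marks 50% less growth. The concentration for full growth arrest is given as TGI.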 Some results are limits rather than exact numbers.

For the compound `OCC(O)C(O)C(O)C1SC(c2ccccc2)=NN1c1ccccc1` (stereo unspecified), the TGI in the test on UO-31 renal, in the test with NCI/ADR-RES ovarian, in the test on K-562 leukemia, in the test with HCT-116 colon, in the test on LOX IMVI melanoma and with HS 578T breast was greater than 100 µM in each case. Further, the TGI in the test on OVCAR-8 ovarian, in the test with CCRF-CEM leukemia, in the test with MCF7 breast and in the test with A498 renal was greater than 100 µM in each case.

In the case of `COc1ccccc1C1=C2C(=O)N(C)C(c3ccccc3OC)=C2C(=O)N1C`, the TGI was greater than 100 µM in the test on UO-31 renal; greater than 100 µM in the test with NCI/ADR-RES ovarian; greater than 100 µM in the test on K-562 leukemia; greater than 100 µM in the test on HCT-116 colon; greater than 100 µM in the test on LOX IMVI melanoma; 97.1 µM in the test on HS 578T breast. Further, the TGI in the test on OVCAR-8 ovarian, in the test on CCRF-CEM leukemia, in the test with MCF7 breast and in the test with A498 renal was greater than 100 µM throughout.

As for `CCN(CC)CCOc1ccc(Nc2ncc3cc(-c4ccc(O)cc4)c(=O)n(C)c3n2)cc1`, the GI50 in the test on UO-31 renal was 0.0396 µM; with NCI/ADR-RES ovarian it was 12.7 µM; in the test with K-562 leukemia, 0.039 µM; in the test on LOX IMVI melanoma, 0.168 µM; with HS 578T breast it was 0.274 µM; with OVCAR-8 ovarian, 3.72 µM. Also, the GI50 in the test on CCRF-CEM leukemia was 0.845 µM; with MCF7 breast, 1.07 µM; with A498 renal, 1.5 µM. For the same compound, the TGI is 1.6 µM in the test on UO-31 renal; 41.5 µM in the test with NCI/ADR-RES ovarian; 5.87 µM in the test with LOX IMVI melanoma; 19.8 µM with HS 578T breast; 15.2 µM with OVCAR-8 ovarian; greater than 26.4 µM in the test on CCRF-CEM leukemia. In addition, the TGI is 2.78 µM with MCF7 breast and 13.4 µM in the test on A498 renal.

In the case of `O=C(/C=C/C=C/c1ccccc1)CCc1ccccc1`, the TGI in the test on UO-31 renal, in the test with NCI/ADR-RES ovarian, in the test with HCT-116 colon, in the test on LOX IMVI melanoma, in the test with HS 578T breast and in the test with OVCAR-8 ovarian was greater than 100 µM throughout. For the same compound, the TGI in the test with CCRF-CEM leukemia, with MCF7 breast and in the test on A498 renal was greater than 100 µM in each case.

As for `Cc1ccccc1C(=O)C#Cc1cn(C2CC(O)C(CO)O2)c(=O)[nH]c1=O` (stereo unspecified), the TGI in the test on UO-31 renal, with NCI/ADR-RES ovarian, in the test on K-562 leukemia, in the test with HCT-116 colon, in the test with HS 578T breast and with OVCAR-8 ovarian was greater than 100 µM in each case. The TGI in the test on CCRF-CEM leukemia is 67.3 µM; in the test with MCF7 breast it was greater than 100 µM.

As to `O=C1C(=Cc2ccco2)C(=O)C2CCCCC12` (stereo unspecified), the TGI in the test with NCI/ADR-RES ovarian was greater than 100 µM; with K-562 leukemia, 73.2 µM; in the test with HCT-116 colon, greater than 100 µM; with LOX IMVI melanoma, greater than 100 µM; with HS 578T breast it was greater than 100 µM; in the test with OVCAR-8 ovarian, greater than 100 µM. Also, the TGI with CCRF-CEM leukemia, in the test on MCF7 breast and with A498 renal was greater than 100 µM throughout.

On to `O=C(Nc1ccc(-n2cc(-c3ccncc3)c(-c3ccc(Cl)c(O)c3)n2)cc1)Nc1cc(C(F)(F)F)cc(C(F)(F)F)c1`, for which the GI50 is 1.55 µM in the test on UO-31 renal; 2.22 µM in the test with NCI/ADR-RES ovarian; 1.61 µM in the test on HCT-116 colon; 1.63 µM with LOX IMVI melanoma; 2.04 µM in the test with HS 578T breast; 1.99 µM in the test with OVCAR-8 ovarian. Moreover, the results for the GI50 with MCF7 breast and with A498 renal were 2.58 µM and 1.56 µM, respectively. Also, the TGI worked out at 3.93 µM in the test on UO-31 renal; 5.6 µM in the test with NCI/ADR-RES ovarian; 3.14 µM in the test with HCT-116 colon; 3.02 µM in the test with LOX IMVI melanoma; 6.59 µM in the test with HS 578T breast; 5.48 µM with OVCAR-8 ovarian. In addition, the TGI is 8.15 µM with MCF7 breast and 5.39 µM with A498 renal.

Consider `COc1ccc2nc(-c3ccccc3)cc(Nc3ccc(C(C)=O)cc3)c2c1`, for which the GI50 with UO-31 renal was 6.2 µM; in the test on NCI/ADR-RES ovarian it was 2.78 µM; with K-562 leukemia it was 1.14 µM; in the test on HCT-116 colon it was 1.54 µM; with HS 578T breast, 8.2 µM; in the test on OVCAR-8 ovarian, 4.17 µM. The GI50 in the test with MCF7 breast was 2.47 µM. Also, the TGI in the test on UO-31 renal was greater than 100 µM; with NCI/ADR-RES ovarian, 7.29 µM; in the test with K-562 leukemia it was 11.7 µM; with HCT-116 colon, 4.62 µM; in the test on HS 578T breast, 27.1 µM; in the test on OVCAR-8 ovarian, 35.8 µM. This compound also yielded a TGI in the test with MCF7 breast of 13.9 µM.

For `CC(=O)C1CC2(c3ccc(C)cc3)C(c3ccc(C)cc3)=C(c3ccc(C)cc3)C1(c1ccc(C)cc1)S2=O` (stereo unspecified), the GI50 in the test with UO-31 renal, with NCI/ADR-RES ovarian, in the test on K-562 leukemia, in the test with HCT-116 colon, with LOX IMVI melanoma and in the test on HS 578T breast was greater than 100 µM in each case. The GI50 with OVCAR-8 ovarian is 88.2 µM; in the test on CCRF-CEM leukemia it was greater than 100 µM; in the test with MCF7 breast it was greater than 100 µM. Besides, the TGI in the test on UO-31 renal, in the test with NCI/ADR-RES ovarian, in the test with K-562 leukemia, in the test on HCT-116 colon, with LOX IMVI melanoma and with HS 578T breast was greater than 100 µM throughout. The TGI in the test on OVCAR-8 ovarian, with CCRF-CEM leukemia and with MCF7 breast was greater than 100 µM in each case.

Turning to `COc1ccc2c(c1)nc(N)c1c3cc(OC)c(OC)cc3cn21`, the GI50 with UO-31 renal is 2.51 µM; in the test with K-562 leukemia, less than 0.01 µM; in the test with HCT-116 colon it was less than 0.01 µM; in the test on HS 578T breast, 0.159 µM; in the test with OVCAR-8 ovarian, 0.123 µM; in the test on CCRF-CEM leukemia, 0.0101 µM. Further, the GI50 in the test on MCF7 breast is 0.148 µM; with A498 renal, 0.0135 µM. Besides, the TGI in the test with UO-31 renal came out at 20.5 µM; with K-562 leukemia it was 11.7 µM; in the test on HCT-116 colon, 13.7 µM; in the test with LOX IMVI melanoma, 18.4 µM; in the test on HS 578T breast, 32.3 µM; in the test on OVCAR-8 ovarian it was 13.6 µM. In addition, the TGI in the test on CCRF-CEM leukemia came to 11 µM; in the test on MCF7 breast, 13.7 µM; in the test with A498 renal, 0.592 µM.

On to `COc1ccc(CNc2nc3cc(N)cc(N)c3nc2-c2ccccc2)cc1OC`, for which the GI50 is 15 µM in the test with UO-31 renal; 17.7 µM in the test on NCI/ADR-RES ovarian; 10.9 µM in the test with K-562 leukemia; 15.4 µM in the test on HCT-116 colon; 6.53 µM in the test on LOX IMVI melanoma; 23.4 µM with HS 578T breast. Also, the GI50 in the test on OVCAR-8 ovarian is 10.5 µM; in the test with CCRF-CEM leukemia it was 3.48 µM; in the test on MCF7 breast, 20.9 µM. For the same compound, the TGI was 40.7 µM in the test on UO-31 renal; 58.2 µM in the test on NCI/ADR-RES ovarian; greater than 100 µM in the test on K-562 leukemia; 31.5 µM with HCT-116 colon; greater than 37.6 µM with LOX IMVI melanoma; greater than 68.6 µM with HS 578T breast. Besides, the figures for the TGI with OVCAR-8 ovarian, in the test with CCRF-CEM leukemia and with MCF7 breast were 32.1 µM, 71.5 µM and greater than 63.2 µM, respectively.
